Assay: xn = mol fraction of the nth substance listed
Details: 100 kPa

CCO + CCCC[N+](C)(C)C.O=S(=O)([N-]S(=O)(=O)C(F)(F)F)C(F)(F)F
x1 = 1
Details	speed of sound [m/s]
293.15 K	1160.4
308.15 K	1108.9

CCO + CCCC[N+](C)(CCCC)CCCC.O=S(=O)([N-]S(=O)(=O)C(F)(F)F)C(F)(F)F
x1 = 1
Details	speed of sound [m/s]
293.15 K	1160.4
298.15 K	1143.3
303.15 K	1126.1

CCCC[N+](C)(C)C.O=S(=O)([N-]S(=O)(=O)C(F)(F)F)C(F)(F)F + CCO
speed of sound [m/s]
Details	293.15 K	298.15 K	303.15 K	308.15 K
x1 = 0.01	1160.4	–	1126.8	1110.1
x2 = 0	1239.5	1228.9	1218.3	1208.1
x2 = 0.0605	1237.5	1226.8	1216.1	1205.9
x2 = 0.101	1235.4	1224.6	1214	–
x2 = 0.1991	–	1220.2	1209.5	1199
x2 = 0.3	1225.3	1214.6	–	1193.1
x2 = 0.4096	1218.1	1206.9	1195.8	1185
x2 = 0.4998	1210.5	1199.2	1187.9	–
x2 = 0.5996	1200.8	1189.1	–	1166.4
x2 = 0.6504	1195.1	1183.1	–	1159.6
x2 = 0.7501	–	1169.2	1156.6	1144.4
x2 = 0.8514	1166.7	1152.8	–	1126.2
x2 = 0.88	1163.4	–	1134.6	1117
x2 = 0.92	1158.1	1143.6	1129.8	1114.5
x2 = 0.93	1158	1142.8	1128	1113.2
x2 = 0.94	1157.5	1142.1	1127	1112.2
x2 = 0.9609	1157.2	1141.7	1126	1110.5
x2 = 0.97	–	1142.1	–	1110.4
x2 = 0.98	–	1142.2	1125.9	1109.9

CCCC[N+](C)(CCCC)CCCC.O=S(=O)([N-]S(=O)(=O)C(F)(F)F)C(F)(F)F + CCO
speed of sound [m/s]
Details	293.15 K	298.15 K	303.15 K	308.15 K
x1 = 0.0149	–	1146.8	1130.4	1114.1
x2 = 0	1291.7	1276	1261.1	–
x2 = 0.0636	–	1271.9	1257.5	1244.1
x2 = 0.0711	1285.8	1272.2	–	1244.1
x2 = 0.1235	–	1268.1	1254.2	–
x2 = 0.2012	1277.4	1263.2	1249.4	1236.2
x2 = 0.3995	1262.3	–	1235.2	1221.9
x2 = 0.6009	1241.4	1227.8	1214.4	1200.8
x2 = 0.7187	1224.1	1210.4	1196.3	1182.7
x2 = 0.8118	1205.7	1192	–	1163.3
x2 = 0.8605	1194.3	–	–	1151.2
x2 = 0.9076	1181.8	1166.7	1151.6	1136.7
x2 = 0.93	1175.6	1160.2	–	1129.9
x2 = 0.95	1170.7	–	–	1123.5
x2 = 0.96	–	1152.3	–	1120.9
x2 = 0.9702	1165.7	–	1133.6	–

C[N+](C)(C)CCO.O=S(=O)([N-]S(=O)(=O)C(F)(F)F)C(F)(F)F + CCO
speed of sound [m/s]
Details	293.15 K	298.15 K	303.15 K	308.15 K
x2 = 0.7051	1221.8	1207.6	1195.3	1183.5
x2 = 0.801	–	1183.2	1170	1157.2
x2 = 0.9002	1172.1	1156.6	1142.5	1128.2
x2 = 0.9601	1162.4	1145.9	1130.3	1115

CCO + C[N+](C)(C)CCO.O=S(=O)([N-]S(=O)(=O)C(F)(F)F)C(F)(F)F
x1 = 1
Details	speed of sound [m/s]
303.15 K	1126.1
308.15 K	1108.9
